Experimental data taken from US11912682B2, “Isoindolinone compounds” (Monte Rosa Therapeutics, Inc., priority 2021, dated 2024).
Read-outs that look alike come from different tables or passages of the source.

Legend:
CRBN-DDB1 = CRBN-DDB1 (Homo sapiens (Human), UniProt Q96SW2); assay: Homogenous Time-Resolved Fluorescence (HTRF) binding assay to CRBN
Method: Compound activity was monitored in a Homogenous Time-Resolved Fluorescence (HTRF) assay using 1-[5-({2-[2-(2-{[2-(2,6-dioxopiperidin-3-yl)-1,3-dioxo-2,3-dihydro-1H-isoindol-4-yl]oxy}acetamido)ethoxy]ethyl}carbamoyl)pentyl]-3,3-dimethyl-2-[(1E,3E)-5-[(2E)-1,3,3-trimethyl-5-sulfo-2,3-dihydro-1H-indol-2-ylidene]penta-1,3-dien-1-yl]-3H-indol-1-ium-5-sulfonate as a fluorescent probe. […] Compounds were stored in dry, ambient temperatures at 10 mM. A 10-point, 1:3 dilution series was prepared from 10 mM stock concentrations in Echo-compatible LDV plates. 10 nL of each compound dilution series was dispensed into assays wells using an Echo 650 (Labcyte inc. USA). […] The assay was then allowed to incubate for 30 min at ambient temperature after transferring compound. […] Analysis and IC50 values were derived using KNIME analytics (KNIME Zurich) transformation and fitting within Collaborative Drug Discovery (Collaborative Drug Discovery USA). Ki was derived from the geometric mean of the IC50 values using the Cheng-Prustoff transformation.

GSPT1 [1] = molecular target: T1, GSPT1 (Homo sapiens (Human), UniProt P15170+Q96SW2); assay: immunofluorescence assay for GSPT1 degradation in CAL-51 cells (Example 10); format: cell-based
Outline: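 CAL-51 cells fixed in formalin, immunostained overnight at 4 °C for GSPT1 and imaged by high-content microscopy. Cells segmented from DAPI and actin channels. DC50 from GSPT1 signal normalized to controls by non-linear regression.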
Target sequence in this assay (P15170 whole entry): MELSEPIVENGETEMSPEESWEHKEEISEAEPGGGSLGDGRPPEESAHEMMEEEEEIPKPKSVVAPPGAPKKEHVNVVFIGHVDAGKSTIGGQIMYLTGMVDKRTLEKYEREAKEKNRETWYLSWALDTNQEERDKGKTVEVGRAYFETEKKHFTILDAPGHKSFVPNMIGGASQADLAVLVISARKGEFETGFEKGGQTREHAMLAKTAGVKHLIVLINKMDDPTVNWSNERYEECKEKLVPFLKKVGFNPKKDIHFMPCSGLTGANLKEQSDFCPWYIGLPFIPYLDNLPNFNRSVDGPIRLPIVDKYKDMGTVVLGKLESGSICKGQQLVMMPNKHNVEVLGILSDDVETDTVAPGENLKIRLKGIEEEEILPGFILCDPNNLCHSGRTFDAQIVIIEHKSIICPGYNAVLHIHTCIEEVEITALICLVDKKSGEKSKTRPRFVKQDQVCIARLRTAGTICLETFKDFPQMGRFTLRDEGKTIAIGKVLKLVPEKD
Target sequence in this assay (Q96SW2 whole entry): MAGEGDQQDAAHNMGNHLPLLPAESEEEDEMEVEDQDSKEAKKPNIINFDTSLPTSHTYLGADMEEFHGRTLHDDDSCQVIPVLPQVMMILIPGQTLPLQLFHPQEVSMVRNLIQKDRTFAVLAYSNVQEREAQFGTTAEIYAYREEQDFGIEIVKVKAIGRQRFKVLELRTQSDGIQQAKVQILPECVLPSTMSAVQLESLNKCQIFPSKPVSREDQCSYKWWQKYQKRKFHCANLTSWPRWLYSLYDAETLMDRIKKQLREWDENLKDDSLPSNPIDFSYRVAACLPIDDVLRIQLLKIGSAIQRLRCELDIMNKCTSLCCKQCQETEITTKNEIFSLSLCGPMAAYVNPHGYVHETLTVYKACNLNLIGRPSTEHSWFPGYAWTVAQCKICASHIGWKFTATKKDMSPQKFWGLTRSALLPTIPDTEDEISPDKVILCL
Target sequence in this assay (Q16531 2-1140 partner): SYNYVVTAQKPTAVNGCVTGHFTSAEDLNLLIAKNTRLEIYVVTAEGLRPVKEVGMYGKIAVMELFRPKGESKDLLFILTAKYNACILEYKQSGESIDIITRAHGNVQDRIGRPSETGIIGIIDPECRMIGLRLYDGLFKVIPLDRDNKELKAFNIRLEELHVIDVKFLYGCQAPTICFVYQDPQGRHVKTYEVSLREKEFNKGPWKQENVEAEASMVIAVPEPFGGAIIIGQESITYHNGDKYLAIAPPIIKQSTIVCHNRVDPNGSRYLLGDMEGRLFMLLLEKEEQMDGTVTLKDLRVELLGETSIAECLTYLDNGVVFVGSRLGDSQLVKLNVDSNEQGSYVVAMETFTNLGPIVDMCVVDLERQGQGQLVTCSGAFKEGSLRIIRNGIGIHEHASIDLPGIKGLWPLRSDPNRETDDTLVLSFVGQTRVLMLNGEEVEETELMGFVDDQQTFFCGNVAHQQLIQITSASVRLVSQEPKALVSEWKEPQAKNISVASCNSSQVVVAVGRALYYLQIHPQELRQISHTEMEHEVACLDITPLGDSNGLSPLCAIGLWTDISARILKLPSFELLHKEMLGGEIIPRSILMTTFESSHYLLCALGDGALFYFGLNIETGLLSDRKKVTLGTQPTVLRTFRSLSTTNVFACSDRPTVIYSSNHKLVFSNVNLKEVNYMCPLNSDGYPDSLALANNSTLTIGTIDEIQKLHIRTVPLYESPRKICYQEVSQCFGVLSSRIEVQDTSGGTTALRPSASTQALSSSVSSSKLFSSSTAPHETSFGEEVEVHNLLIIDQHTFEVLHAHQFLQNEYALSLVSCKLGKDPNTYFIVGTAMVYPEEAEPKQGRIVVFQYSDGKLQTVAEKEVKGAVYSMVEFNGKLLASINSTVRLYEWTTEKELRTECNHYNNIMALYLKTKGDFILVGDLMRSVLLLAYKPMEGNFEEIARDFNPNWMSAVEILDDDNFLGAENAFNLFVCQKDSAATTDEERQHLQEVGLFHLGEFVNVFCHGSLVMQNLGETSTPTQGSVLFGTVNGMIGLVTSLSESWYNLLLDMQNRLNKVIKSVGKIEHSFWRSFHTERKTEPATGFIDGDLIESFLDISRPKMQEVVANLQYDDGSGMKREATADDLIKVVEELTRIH

IKZF3 (Aiolos) = IKZF3 (Aiolos) (Homo sapiens (Human), UniProt Q9UKT9); assay: selectivity by Western blot in MM1S cells, IKZF3; format: cell-based; design: key to IKZF3 degradation: A represents a no degradation observed at 30 μM; B represents trace degradation at 30 μM (below 20%); C represents weak degradation at 30 μM (below 50%); D represents degradation at 30 μM (>90%); E represents degradation at 3 μM (>90%); F represents degradation at 0.3 μM (>90%); details: MM1S cells, 6 hours, 0.3, 3 and 30 μM
Sequence of IKZF3 (Aiolos) (Q9UKT9 whole entry, looked up): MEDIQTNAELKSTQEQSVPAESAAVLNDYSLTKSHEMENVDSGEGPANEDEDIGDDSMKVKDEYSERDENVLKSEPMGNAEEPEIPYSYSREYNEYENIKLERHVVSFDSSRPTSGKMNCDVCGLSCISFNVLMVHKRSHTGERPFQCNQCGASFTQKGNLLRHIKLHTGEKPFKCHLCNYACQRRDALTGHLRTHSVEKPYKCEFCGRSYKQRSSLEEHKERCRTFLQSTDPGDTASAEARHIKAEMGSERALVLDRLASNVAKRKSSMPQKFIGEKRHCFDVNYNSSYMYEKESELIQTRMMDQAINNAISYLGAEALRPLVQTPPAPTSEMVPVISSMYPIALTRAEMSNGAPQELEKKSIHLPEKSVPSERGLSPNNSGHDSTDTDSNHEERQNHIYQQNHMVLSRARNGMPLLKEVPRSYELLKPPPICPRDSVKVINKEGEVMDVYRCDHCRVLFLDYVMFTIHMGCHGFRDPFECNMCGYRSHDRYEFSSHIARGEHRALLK
Method: (§1) MM1S cells were purchased from ATCC (cat. Number CRL-2974), sub-cultured in 90% RPMI 1640 with 10% FBS, supplemented with 1× P/S and incubated at 37° C., 5% CO2. Compounds were stored as 10 mM DMSO stock. For the assay, MM1S cells (3 million cells/well) were plated in 6-well plates and incubated over night. Cells were treated with respective compounds using a serial dilution: 0.3 μM, 3 μM and 30 μM as well as a vehicle only (DMSO) control for 6 hours. Media with suspension cells was subsequently transferred to 15 mL conical tubes, wells rinsed twice with ice-cold PBS and merged with cell suspension in respective 15 mL conical tube. Cells were spinned down, supernatant aspirated, pellets resuspended in ice-cold PBS and transferred to microtubes. Cells were spinned down, supernatant aspirated and pellets resuspended in 120 μL RIPA lysis buffer supplemented with protease and phosphatase inhibitors. Cell lysates were incubated on ice for 20 minutes followed by centrifugation at >20,000 xg for 5 min. Supernatants were transferred to fresh microtubes and stored at −80° C. Total protein concentration was determined using a BCA assay with a BSA standard curve and concentration of all samples was adjusted to 1 mg/mL. 25 μL 4× LDS sample buffer supplemented with 100 mM DTT was added to 75 μL sample. Samples were centrifuged (8,000 xg, 1 min) and incubated at 95° C. for 5 min followed by another centrifugation step (8,000 xg, 1 min). 20 μL of each sample was loaded on a 4-12% gel alongside a protein molecular weight marker. Gels were run in the presence of MOPS buffer at 80 Volts for 30 min, followed by 120 Volts for 1.5 h and proteins subsequently transferred onto nitrocellulose membranes at 20 Volts for 7 min using an iBlot2 Gel Transfer Device. Membranes were then cut horizontally into two pieces, covering 80-50 kDa and 50-25 kDa. Blocking the membranes was performed by gently shaking in 5% (w/v) skim milk in TSB-T for 1 hr at room temperature. All primary antibodies were used at a 1/1000 in 5% (w/v) BSA dissolved in TBST and incubated with membranes over night at 4° C. Anti-IKZF1 (Ikaros; D6N9Y; 14859S), anti-IKZF3 (Aiolos; D1C1E; 15103S) antibodies were purchased from Cell Signalling Technology, anti-ZFP91 antibody from Bethyl laboratories, anti-GSPT1 from Sigma Aldrich (HPA052488) and anti CK1alpha from AbCam (ab206652). After three washes with 1× TBST for 5 min, HRP-coupled secondary antibodies diluted in 5% (w/v) BSA/TBST (Goat Anti-Rb IgG, dil. 1/10,000; Goat Anti-Mouse IgG, dil. 1/5000) were added for 1 hr at room temperature. After three washes with 1× TBST (5 minutes each), membranes were incubated with ECL reagent for 1 min at room temperature. Chemiluminescence signals were then detected using a LAS-4000 system with default settings and signals quantified using Image Studio Lite software (version 5.2). Membrane parts previously incubated with antibody against CK1alpha were stripped off antibodies by incubating with stripping buffer for 30 minutes followed by three washed with TBST (5 min each), blocking with 5% (w/v) skim milk for 1 hr, and incubation with primary antibody against GAPDH overnight at 4° C. Subsequent washes, incubation with secondary antibody and signal acquisition were performed as described above.

GSPT1 [2] = molecular target: T1, GSPT1; assay: selectivity by Western blot in MM1S cells, GSPT1; format: cell-based; details: MM1S cells, 6 hours, 0.3, 3 and 30 μM
Method: as §1
Target sequence in this assay (P15170 whole entry, looked up): as the sequence (P15170 whole entry) above
Target sequence in this assay (Q96SW2 whole entry, looked up): as the sequence (Q96SW2 whole entry) above
Target sequence in this assay (Q16531 whole entry partner, looked up): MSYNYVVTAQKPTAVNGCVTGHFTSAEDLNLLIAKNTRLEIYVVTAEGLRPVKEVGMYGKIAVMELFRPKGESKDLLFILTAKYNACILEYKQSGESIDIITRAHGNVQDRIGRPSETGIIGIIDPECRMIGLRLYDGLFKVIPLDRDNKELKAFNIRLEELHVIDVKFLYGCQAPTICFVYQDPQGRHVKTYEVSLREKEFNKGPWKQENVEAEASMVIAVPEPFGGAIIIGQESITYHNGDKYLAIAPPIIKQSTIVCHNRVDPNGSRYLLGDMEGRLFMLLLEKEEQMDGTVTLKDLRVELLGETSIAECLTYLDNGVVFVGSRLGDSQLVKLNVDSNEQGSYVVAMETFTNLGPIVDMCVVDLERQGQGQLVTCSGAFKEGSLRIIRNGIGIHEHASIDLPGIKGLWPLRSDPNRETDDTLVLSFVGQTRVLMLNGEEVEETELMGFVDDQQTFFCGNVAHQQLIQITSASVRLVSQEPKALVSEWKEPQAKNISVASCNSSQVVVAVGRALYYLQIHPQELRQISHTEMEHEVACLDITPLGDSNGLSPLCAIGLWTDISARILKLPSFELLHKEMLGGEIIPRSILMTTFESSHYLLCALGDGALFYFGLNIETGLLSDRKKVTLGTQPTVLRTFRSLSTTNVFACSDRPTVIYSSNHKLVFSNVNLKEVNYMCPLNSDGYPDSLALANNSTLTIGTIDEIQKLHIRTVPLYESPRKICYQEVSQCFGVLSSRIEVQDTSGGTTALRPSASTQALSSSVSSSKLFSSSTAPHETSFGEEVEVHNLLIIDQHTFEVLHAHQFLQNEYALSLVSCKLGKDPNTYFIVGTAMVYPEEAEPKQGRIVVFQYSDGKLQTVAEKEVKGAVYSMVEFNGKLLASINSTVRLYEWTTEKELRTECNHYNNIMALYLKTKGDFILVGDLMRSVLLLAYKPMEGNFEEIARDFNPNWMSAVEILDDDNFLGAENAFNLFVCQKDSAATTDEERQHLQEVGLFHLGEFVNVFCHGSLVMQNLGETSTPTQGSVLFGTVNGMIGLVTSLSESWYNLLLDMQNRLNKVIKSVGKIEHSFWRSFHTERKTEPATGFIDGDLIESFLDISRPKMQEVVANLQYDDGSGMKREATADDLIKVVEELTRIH

GSPT1 [3] = molecular target: T1, GSPT1; assay: immunofluorescence assay for GSPT1 degradation in CAL-51 cells (Example 4); format: cell-based
Outline: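 CAL-51 cells on fibronectin-coated plates were treated 6 h with serial dilutions (30 μM to 0.1 nM), then fixed and immunostained for GSPT1 with DAPI and phalloidin counterstains. Per-cell mean GSPT1 intensity from high-content imaging, normalized to controls; DC50 by non-linear regression.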
Target sequence in this assay (P15170 whole entry): as the sequence (P15170 whole entry) above
Target sequence in this assay (Q96SW2 whole entry): as the sequence (Q96SW2 whole entry) above
Target sequence in this assay (Q16531 2-1140 partner): as the sequence (Q16531 2-1140 partner) above

CK1alpha = CK1alpha (Homo sapiens (Human), UniProt P48729); assay: selectivity by Western blot in MM1S cells, CK1alpha; format: cell-based; details: MM1S cells, 6 hours, 0.3, 3 and 30 μM
Sequence of CK1alpha (P48729 whole entry, looked up): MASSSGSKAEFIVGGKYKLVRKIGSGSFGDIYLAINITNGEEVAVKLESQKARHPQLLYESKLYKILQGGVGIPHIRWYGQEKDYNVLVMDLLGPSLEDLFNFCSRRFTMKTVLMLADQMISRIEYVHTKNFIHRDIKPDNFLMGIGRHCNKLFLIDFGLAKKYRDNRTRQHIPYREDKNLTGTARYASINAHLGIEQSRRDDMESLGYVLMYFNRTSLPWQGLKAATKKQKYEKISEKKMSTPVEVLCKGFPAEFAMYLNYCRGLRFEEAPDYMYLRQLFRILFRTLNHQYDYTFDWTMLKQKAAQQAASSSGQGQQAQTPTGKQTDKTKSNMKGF
Method: as §1

IKZF1 (Ikaros) = IKZF1 (Ikaros) (Homo sapiens (Human), UniProt Q13422); assay: selectivity by Western blot in MM1S cells, IKZF1; format: cell-based; design: key to IKZF1 degradation: A represents a no degradation observed at 30 μM; B represents trace degradation at 30 μM (below 20%); C represents weak degradation at 30 μM (below 50%); D represents degradation at 30 μM (>90%); E represents degradation at 3 μM (>90%); F represents degradation at 0.3 μM (>90%); details: MM1S cells, 6 hours, 0.3, 3 and 30 μM
Method: as §1

ZFP91 = ZFP91 (Homo sapiens (Human), UniProt Q96JP5); assay: selectivity by Western blot in MM1S cells, ZFP91; format: cell-based; design: key: A represents a no degradation observed at 30 μM; B represents trace degradation at 30 μM (below 20%); C represents weak degradation at 30 μM (below 50%); D represents degradation at 30 μM (>90%); E represents degradation at 3 μM (>90%); F represents degradation at 0.3 μM (>90%); details: 6 hours, 0.3, 3 and 30 μM
Sequence of ZFP91 (Q96JP5 whole entry, looked up): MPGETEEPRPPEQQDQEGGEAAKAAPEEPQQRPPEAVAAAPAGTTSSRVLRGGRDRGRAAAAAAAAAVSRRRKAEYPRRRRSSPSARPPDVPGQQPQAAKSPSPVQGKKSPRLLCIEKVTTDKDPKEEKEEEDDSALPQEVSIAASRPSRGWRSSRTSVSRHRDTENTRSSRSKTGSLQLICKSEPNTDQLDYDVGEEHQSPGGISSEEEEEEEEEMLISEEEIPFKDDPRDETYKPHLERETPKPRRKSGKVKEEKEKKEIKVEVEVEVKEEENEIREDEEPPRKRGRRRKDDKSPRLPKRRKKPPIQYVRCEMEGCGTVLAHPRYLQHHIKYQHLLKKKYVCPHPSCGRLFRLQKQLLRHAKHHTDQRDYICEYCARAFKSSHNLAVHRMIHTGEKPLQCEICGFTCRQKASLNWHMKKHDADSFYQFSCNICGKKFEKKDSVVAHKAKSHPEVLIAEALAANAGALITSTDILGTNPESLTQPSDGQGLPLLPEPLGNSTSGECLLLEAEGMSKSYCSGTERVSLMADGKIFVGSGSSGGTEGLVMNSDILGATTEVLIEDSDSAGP
Method: as §1, with “After three washes with 1× TBST (5 minutes each), membranes were incubated with ECL reagent for 1 min at room temperature.” left out, “Membrane parts previously incubated with antibody against CK1alpha were stripped off antibodies by incubating with stripping buffer for 30 minutes followed by three washed with TBST (5 min each), blocking with 5% (w/v) skim milk for 1 hr, and incubation with primary antibody against GAPDH overnight at 4° C. Subsequent washes, incubation with secondary antibody and signal acquisition were performed as described above.” left out

[4] = CRBN-DDB1, HTRF, read-out: HTRF Class (HTRF IC50, Cereblon binding)
[5] = CAL-51 cells, 6 h; read-out: IF Class (GSPT1 degradation DC50)
[6] = 6 hours, read-out: Activity for GSPT1 degradation, Code (DC50)
[7] = GSPT1 degradation, read-out: DC50 value

Sequence of CRBN-DDB1 (Q96SW2 whole entry): as the sequence (Q96SW2 whole entry) above
Sequence of CRBN-DDB1 (Q16531 whole entry partner): as the sequence (Q16531 whole entry partner, looked up) above

IC50 (CRBN-DDB1; [4]) [nM]	DC50 (GSPT1 [1]; [5]) [nM]	IKZF3 degradation (IKZF3 (Aiolos))	DC50 (GSPT1 [3]; [6]) [nM]	DC50 (GSPT1 [3]; [7]) [nM]	IKZF1 degradation (IKZF1 (Ikaros))	Structure (SMILES)	GSPT1 degradation (GSPT1 [2])	CK1alpha degradation (CK1alpha)	ZFP91 degradation (ZFP91)	IC50 (CRBN-DDB1) [nM]	DC50 (GSPT1 [1]; read-out: IF Class (GSPT1 degradation DC50); CAL-51 cells, 6 h) [nM]
> 1000	< 30					Cc1ccc(NC(=O)OCc2ccc3c(c2)C(=O)N([C@H]2CCC(=O)NC2=O)C3)cc1Cl (single isomer, unassigned) [Compound 175]					
< 100	< 30					Cc1ccc(NC(=O)OCc2ccc3c(c2)C(=O)N([C@@H]2CCC(=O)NC2=O)C3)cc1Cl (single isomer, unassigned) [Compound 176]					
		A	< 30	≤ 30	A	O=C1CCC(N2Cc3ccc(COC(=O)Nc4cccc(OC(F)(F)F)c4)cc3C2=O)C(=O)N1 (stereo not shown) [Compound 3]	F (F represents degradation at 0.3 μM (>90%))	B (B represents trace degradation at 30 μM (below 20%))	B (B represents trace degradation at 30 μM (below 20%))		
		A	< 30	≤ 30	A	CC(C)(C)c1ccc(NC(=O)OCc2ccc3c(c2)C(=O)N(C2CCC(=O)NC2=O)C3)cc1 (stereo not shown) [Compound 47]	F (F represents degradation at 0.3 μM (>90%))	B (B represents trace degradation at 30 μM (below 20%))	B (B represents trace degradation at 30 μM (below 20%))		
		A	< 30	≤ 30	A	CCc1ncc(NC(=O)OCc2ccc3c(c2)C(=O)N(C2CCC(=O)NC2=O)C3)cc1C (stereo not shown) [Compound 49]	F (F represents degradation at 0.3 μM (>90%))	B (B represents trace degradation at 30 μM (below 20%))	B (B represents trace degradation at 30 μM (below 20%))		
						COc1ccc(C(F)(F)C23CC(NC(=O)OCc4ccc5c(c4)C(=O)N(C4CCC(=O)NC4=O)C5)(C2)C3)cc1 (stereo not shown) [Compound 214, (2-(2,6-dioxopiperidin-3-yl)-3-oxoisoindolin-5-yl)methyl(3-(difluoro(4-methoxyphenyl)methyl)bicyclo[1.1.1]pentan-1-yl)carbamate]				< 100	30 to 300

Structure (SMILES)	IC50 (CRBN-DDB1; [4]) [nM]	DC50 (GSPT1 [1]; [5]) [nM]	IKZF3 degradation (IKZF3 (Aiolos))	DC50 (GSPT1 [3]; [6]) [nM]	DC50 (GSPT1 [3]; [7]) [nM]	IKZF1 degradation (IKZF1 (Ikaros))	GSPT1 degradation (GSPT1 [2])	CK1alpha degradation (CK1alpha)	ZFP91 degradation (ZFP91)	IC50 (CRBN-DDB1) [nM]	DC50 (GSPT1 [1]; read-out: IF Class (GSPT1 degradation DC50); CAL-51 cells, 6 h) [nM]
COc1cc(C)c(Cl)cc1NC(=O)OCc1ccc2c(c1)C(=O)N(C1CCC(=O)NC1=O)C2 (stereo not shown) [Compound 1]			B (B represents trace degradation at 30 μM (below 20%))	< 30	≤ 30	A	F (F represents degradation at 0.3 μM (>90%))	B (B represents trace degradation at 30 μM (below 20%))	A		
Cc1c(Cl)cc(NC(=O)OCc2ccc3c(c2)C(=O)N(C2CCC(=O)NC2=O)C3)cc1OCCN1CCOCC1 (stereo not shown) [Compound 48]			B (B represents trace degradation at 30 μM (below 20%))	< 30	≤ 30	A	F (F represents degradation at 0.3 μM (>90%))	B (B represents trace degradation at 30 μM (below 20%))			
